Assay results taken from PMC10233829 (ACS Omega, 2023).
In brackets after ≈: the same amount, converted by molar mass.

Tested on: M. tuberculosis Spec 210
Assay: microbe, parasite or virus in culture
Type: cell-based, Mycobacterium tuberculosis
Details: for MIC M. tuberculosis Spec 210 (multidrug-resistant): MABA; for MIC: Mycobacterium tuberculosis, SPEC210, read-out: MIC M. tuberculosis Spec 210 (multidrug-resistant), MABA

| SMILES | MIC M. tuberculosis Spec 210 (multidrug-resistant) | MIC |
| --- | --- | --- |
| C=CC(=O)N1CCN(c2cc3c(cc2F)c(=O)c(C(=O)O)cn3C2CC2)CC1 [Compound 1, 7-(4-Acryloyl-piperazin-1-yl)-1-cyclopropyl-6-fluoro-4-oxo-1,4-dihydro-quinoline-3-carboxylic Acid] | 2 µg/mL (≈ 5.19 µM) | 1 to 2 µg/mL (≈ 2.59 to 5.19 µM) |
| O=C(O)c1cn(C2CC2)c2cc(N3CCN(C(=O)C4CC4)CC3)c(F)cc2c1=O [Compound 2, 7-(4-Cyclopropanecarbonyl-piperazin-1-yl)-1-cyclopropyl-6-fluoro-4-oxo-1,4-dihydro-quinoline-3-carboxylic Acid] |  | ≤ 0.25 µg/mL |
| O=C(O)c1cn(C2CC2)c2cc(N3CCN(C(=O)CCl)CC3)c(F)cc2c1=O [Compound 3, 7-[4-(2-Chloroacetyl)-piperazin-1-yl]-1-cyclopropyl-6-fluoro-4-oxo-1,4-dihydro-quinoline-3-carboxylic Acid] | 2 µg/mL (≈ 4.9 µM) | 1 to 2 µg/mL (≈ 2.45 to 4.9 µM) |
| O=C(O)c1cn(C2CC2)c2cc(N3CCN(C(=O)CCCl)CC3)c(F)cc2c1=O [Compound 4, 7-[4-(3-Chloropropionyl)-piperazin-1-yl]-1-cyclopropyl-6-fluoro-4-oxo-1,4-dihydro-quinoline-3-carboxylic Acid] | 2 µg/mL (≈ 4.74 µM) | 1 to 2 µg/mL (≈ 2.37 to 4.74 µM) |
| O=C(O)c1cn(C2CC2)c2cc(N3CCN(C(=O)CCCCl)CC3)c(F)cc2c1=O [Compound 5, 7-[4-(4-Chlorobutyryl)-piperazin-1-yl]-1-cyclopropyl-6-fluoro-4-oxo-1,4-dihydro-quinoline-3-carboxylic Acid] |  | ≤ 0.25 µg/mL |
| O=C(O)c1cn(C2CC2)c2cc(N3CCN(C(=O)CCCCCl)CC3)c(F)cc2c1=O [Compound 6, 7-[4-(5-Chloropentanoyl)-piperazin-1-yl]-1-cyclopropyl-6-fluoro-4-oxo-1,4-dihydro-quinoline-3-carboxylic Acid] |  | ≤ 0.25 µg/mL |
| O=C(O)c1cn(C2CC2)c2cc(N3CCN(C(=O)CCCCCCl)CC3)c(F)cc2c1=O [Compound 7, 7-[4-(6-Chlorohexanoyl)-piperazin-1-yl]-1-cyclopropyl-6-fluoro-4-oxo-1,4-dihydro-quinoline-3-carboxylic Acid] |  | ≤ 0.25 µg/mL |
| O=C(O)c1cn(C2CC2)c2cc(N3CCN(C(=O)CBr)CC3)c(F)cc2c1=O [Compound 8, 7-[4-(2-Bromoacetyl)-piperazin-1-yl]-1-cyclopropyl-6-fluoro-4-oxo-1,4-dihydro-quinoline-3-carboxylic Acid] |  | 8 µg/mL (≈ 17.7 µM) |
| O=C(O)c1cn(C2CC2)c2cc(N3CCN(C(=O)CCBr)CC3)c(F)cc2c1=O [Compound 9, 7-[4-(3-Bromopropionyl)-piperazin-1-yl]-1-cyclopropyl-6-fluoro-4-oxo-1,4-dihydro-quinoline-3-carboxylic Acid] | 1 µg/mL (≈ 2.14 µM) | 1 to 2 µg/mL (≈ 2.14 to 4.29 µM) |
| O=C(O)c1cn(C2CC2)c2cc(N3CCN(C(=O)CCCBr)CC3)c(F)cc2c1=O [Compound 10, 7-[4-(4-Bromobutyryl)-piperazin-1-yl]-1-cyclopropyl-6-fluoro-4-oxo-1,4-dihydro-quinoline-3-carboxylic Acid] |  | ≤ 0.25 µg/mL |
| O=C(O)c1cn(C2CC2)c2cc(N3CCN(C(=O)CCCCBr)CC3)c(F)cc2c1=O [Compound 11, 7-[4-(5-Bromopentanoyl)-piperazin-1-yl]-1-cyclopropyl-6-fluoro-4-oxo-1,4-dihydro-quinoline-3-carboxylic Acid] |  | ≤ 0.25 µg/mL |
| O=C(O)c1cn(C2CC2)c2cc(N3CCN(C(=O)CCCCCBr)CC3)c(F)cc2c1=O [Compound 12, 7-[4-(6-Bromohexanoyl)-piperazin-1-yl]-1-cyclopropyl-6-fluoro-4-oxo-1,4-dihydro-quinoline-3-carboxylic Acid] |  | ≤ 0.25 µg/mL |
| O=C(O)c1cn(C2CC2)c2cc(N3CCN(C(=O)CCCCCCCCCCBr)CC3)c(F)cc2c1=O [Compound 13, 7-[4-(11-Bromoundekanoyl)-piperazin-1-yl]-1-cyclopropyl-6-fluoro-4-oxo-1,4-dihydro-quinoline-3-carboxylic Acid] | 1 µg/mL (≈ 1.73 µM) | 1 to 2 µg/mL (≈ 1.73 to 3.46 µM) |
| O=C(O)c1cn(C2CC2)c2cc(N3CCN(C(=O)CC(F)(F)F)CC3)c(F)cc2c1=O [Compound 14, 7-[4-(3,3,3-Trifluoropropionyl)-piperazin-1-yl]-1-cyclopropyl-6-fluoro-4-oxo-1,4-dihydro-quinoline-3-carboxylic Acid] |  | 32 µg/mL (≈ 72.5 µM) |
| O=C(O)c1cn(C2CC2)c2cc(N3CCN(C(=O)CCC(F)(F)F)CC3)c(F)cc2c1=O [Compound 15, 7-[4-(4,4,4-Trifluorobutyryl)-piperazin-1-yl]-1-cyclopropyl-6-fluoro-4-oxo-1,4-dihydro-quinoline-3-carboxylic Acid] |  | 32 µg/mL (≈ 70.3 µM) |
| O=C(O)c1cn(C2CC2)c2cc(N3CCN(C(=O)CCCC(F)(F)F)CC3)c(F)cc2c1=O [Compound 16, 7-[4-(5,5,5-Trifluoropentanoyl)-piperazin-1-yl]-1-cyclopropyl-6-fluoro-4-oxo-1,4-dihydro-quinoline-3-carboxylic Acid] |  | 32 µg/mL (≈ 68.2 µM) |
| O=C(O)c1cn(C2CC2)c2cc(N3CCN(CC(=O)N4CCN(c5cc6c(cc5F)c(=O)c(C(=O)O)cn6C5CC5)CC4)CC3)c(F)cc2c1=O [Compound 17, CP–Acetyl–CP Dimer] |  | 16 µg/mL (≈ 22.8 µM) |
| O=C(O)c1cn(C2CC2)c2cc(N3CCN(CCCC(=O)N4CCN(c5cc6c(cc5F)c(=O)c(C(=O)O)cn6C5CC5)CC4)CC3)c(F)cc2c1=O [Compound 18, CP–Butyryl–CP Dimer] |  | 4 µg/mL (≈ 5.47 µM) |
| O=C(O)c1cn(C2CC2)c2cc(N3CCN(CCCCC(=O)N4CCN(c5cc6c(cc5F)c(=O)c(C(=O)O)cn6C5CC5)CC4)CC3)c(F)cc2c1=O [Compound 19, CP–Pentanoyl–CP Dimer] | 1 µg/mL (≈ 1.34 µM) | 1 to 2 µg/mL (≈ 1.34 to 2.69 µM) |
| O=C(O)c1cn(C2CC2)c2cc(N3CCN(CCCCCC(=O)N4CCN(c5cc6c(cc5F)c(=O)c(C(=O)O)cn6C5CC5)CC4)CC3)c(F)cc2c1=O [Compound 20, CP–Hexanoyl–CP Dimer] |  | 16 µg/mL (≈ 21.1 µM) |
| O=C(O)c1cn(C2CC2)c2cc(N3CCN(CCCCCCCCCCC(=O)N4CCN(c5cc6c(cc5F)c(=O)c(C(=O)O)cn6C5CC5)CC4)CC3)c(F)cc2c1=O [Compound 21, CP–Undecanoyl–CP Dimer] | 1 µg/mL (≈ 1.21 µM) | 1 to 2 µg/mL (≈ 1.21 to 2.41 µM) |
| CC[C@@H](CO)NCCN[C@@H](CC)CO [ethambutol(EMB), ethambutol, reference compound] |  | 32 µg/mL (≈ 157 µM) |
| NNC(=O)c1ccncc1 [isoniazid (INH), isoniazid, reference compound] |  | 16 µg/mL (≈ 117 µM) |
| CO[C@H]1/C=C/O[C@@]2(C)Oc3c(C)c(O)c4c(O)c(c(/C=N/N5CCN(C)CC5)c(O)c4c3C2=O)NC(=O)/C(C)=C\C=C\[C@H](C)[C@H](O)[C@@H](C)[C@@H](O)[C@@H](C)[C@H](OC(C)=O)[C@@H]1C [rifampicin (RMP), rifampicin, reference compound] |  | 32 µg/mL (≈ 38.9 µM) |
| [H]/N=C(/N)N[C@H]1[C@H](O)[C@@H](O)[C@H](O[C@@H]2O[C@@H](C)[C@](O)(C=O)[C@H]2O[C@@H]2O[C@@H](CO)[C@H](O)[C@@H](O)[C@@H]2NC)[C@@H](N/C(N)=N\[H])[C@@H]1O [streptomycin (SM), streptomycin, reference compound] |  | 16 µg/mL (≈ 27.5 µM) |
